According to ChEMBL document CHEMBL4808203, “Angiokinase inhibition of VEGFR-2, PDGFR and FGFR and cell growth inhibition in lung cancer: Design, synthesis, biological evaluation and molecular docking of novel azaheterocyclic coumarin derivatives” (Bioorg Med Chem Lett, 2021):

How the values were obtained:
A549 [1] = assay: Cytotoxicity against human A549 cells assessed as cell viability measured by MTT assay; format: functional, cell-based
WI-38 = assay: Cytotoxicity against human WI-38 cells assessed as cell viability measured by MTT assay; format: ADME, cell-based
A549 [2] = assay: Cell cycle arrest in human A549 cells assessed as accumulation at pre-G1 phase measured after 24 hrs (reference value: 3.83%); format: functional
[3] = biological target: Vascular endothelial growth factor receptor 2 (Homo sapiens, UniProt P35968); assay: Inhibition of VEGFR2 (unknown origin)
Chain of Vascular endothelial growth factor receptor 2 (P35968 whole entry): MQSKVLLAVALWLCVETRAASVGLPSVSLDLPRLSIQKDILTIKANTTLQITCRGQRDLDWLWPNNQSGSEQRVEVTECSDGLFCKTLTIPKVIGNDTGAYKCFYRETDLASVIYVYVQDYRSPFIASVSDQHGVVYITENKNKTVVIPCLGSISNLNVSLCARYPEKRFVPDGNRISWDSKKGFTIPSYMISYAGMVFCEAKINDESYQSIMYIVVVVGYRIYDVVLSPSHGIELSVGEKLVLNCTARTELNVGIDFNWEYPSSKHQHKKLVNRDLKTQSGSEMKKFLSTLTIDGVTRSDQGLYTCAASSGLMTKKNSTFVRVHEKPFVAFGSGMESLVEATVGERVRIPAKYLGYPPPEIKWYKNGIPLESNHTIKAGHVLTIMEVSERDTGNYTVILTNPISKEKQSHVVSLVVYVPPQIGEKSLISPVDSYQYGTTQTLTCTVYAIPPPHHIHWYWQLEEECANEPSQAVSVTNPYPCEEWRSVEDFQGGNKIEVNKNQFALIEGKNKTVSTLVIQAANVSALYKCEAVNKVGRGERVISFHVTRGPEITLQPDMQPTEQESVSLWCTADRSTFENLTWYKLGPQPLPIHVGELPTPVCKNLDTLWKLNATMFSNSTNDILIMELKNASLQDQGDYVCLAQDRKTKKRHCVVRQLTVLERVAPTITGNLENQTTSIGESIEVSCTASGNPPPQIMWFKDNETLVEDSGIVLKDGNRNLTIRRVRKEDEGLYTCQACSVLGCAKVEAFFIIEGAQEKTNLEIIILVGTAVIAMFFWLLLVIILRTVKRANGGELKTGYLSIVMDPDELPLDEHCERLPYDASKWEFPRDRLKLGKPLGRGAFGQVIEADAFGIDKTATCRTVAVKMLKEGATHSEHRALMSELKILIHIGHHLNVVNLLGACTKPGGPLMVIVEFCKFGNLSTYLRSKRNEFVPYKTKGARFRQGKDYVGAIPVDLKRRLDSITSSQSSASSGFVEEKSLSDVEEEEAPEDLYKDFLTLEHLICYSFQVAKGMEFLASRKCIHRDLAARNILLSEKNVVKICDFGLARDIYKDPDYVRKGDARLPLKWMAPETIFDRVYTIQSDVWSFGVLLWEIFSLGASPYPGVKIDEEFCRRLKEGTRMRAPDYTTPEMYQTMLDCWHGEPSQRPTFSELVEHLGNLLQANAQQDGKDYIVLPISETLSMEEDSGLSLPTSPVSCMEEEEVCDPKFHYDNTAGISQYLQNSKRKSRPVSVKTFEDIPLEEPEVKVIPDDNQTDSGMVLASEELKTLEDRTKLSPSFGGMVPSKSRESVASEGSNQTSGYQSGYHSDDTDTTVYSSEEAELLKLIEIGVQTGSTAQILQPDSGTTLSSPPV

[4] = biological target: Platelet-derived growth factor receptor beta (Homo sapiens, UniProt P09619); assay: Inhibition of PDGFRbeta (unknown origin)
Chain of Platelet-derived growth factor receptor beta (P09619 whole entry): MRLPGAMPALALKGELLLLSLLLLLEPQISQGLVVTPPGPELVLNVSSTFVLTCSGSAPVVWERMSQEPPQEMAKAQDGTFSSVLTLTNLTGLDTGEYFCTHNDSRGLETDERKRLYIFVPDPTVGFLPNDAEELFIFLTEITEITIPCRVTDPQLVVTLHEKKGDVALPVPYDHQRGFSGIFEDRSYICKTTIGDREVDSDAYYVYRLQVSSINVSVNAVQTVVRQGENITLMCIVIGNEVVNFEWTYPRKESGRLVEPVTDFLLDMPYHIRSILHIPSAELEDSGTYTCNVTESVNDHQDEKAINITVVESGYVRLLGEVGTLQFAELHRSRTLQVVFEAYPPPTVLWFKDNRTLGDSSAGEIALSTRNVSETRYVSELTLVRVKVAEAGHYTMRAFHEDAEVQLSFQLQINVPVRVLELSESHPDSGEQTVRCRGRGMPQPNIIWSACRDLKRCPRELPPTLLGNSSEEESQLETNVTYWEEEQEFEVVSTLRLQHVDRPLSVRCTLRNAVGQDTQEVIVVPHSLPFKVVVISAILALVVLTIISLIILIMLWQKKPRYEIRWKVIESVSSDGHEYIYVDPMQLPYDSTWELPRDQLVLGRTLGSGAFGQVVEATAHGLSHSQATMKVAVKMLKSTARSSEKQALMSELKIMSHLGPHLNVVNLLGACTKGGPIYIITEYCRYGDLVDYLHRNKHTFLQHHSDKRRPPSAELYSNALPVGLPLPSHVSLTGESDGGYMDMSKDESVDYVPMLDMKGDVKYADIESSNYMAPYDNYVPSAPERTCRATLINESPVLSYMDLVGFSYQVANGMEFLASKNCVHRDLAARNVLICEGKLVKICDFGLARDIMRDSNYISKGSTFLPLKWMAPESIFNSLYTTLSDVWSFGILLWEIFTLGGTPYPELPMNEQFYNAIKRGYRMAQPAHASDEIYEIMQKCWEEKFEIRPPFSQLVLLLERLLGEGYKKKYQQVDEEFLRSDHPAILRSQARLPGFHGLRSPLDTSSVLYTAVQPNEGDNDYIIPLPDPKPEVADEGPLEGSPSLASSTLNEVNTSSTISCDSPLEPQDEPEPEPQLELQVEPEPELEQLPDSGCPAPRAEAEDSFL

[5] = biological target: Fibroblast growth factor receptor (Homo sapiens, UniProt P22607+P11362+P22455+P21802); assay: Inhibition of FGFR (unknown origin); format: protein assay
[6] = biological target: Epidermal growth factor receptor (Homo sapiens, UniProt P00533); assay: Inhibition of EGFR (unknown origin)
Chain of Epidermal growth factor receptor (P00533 whole entry): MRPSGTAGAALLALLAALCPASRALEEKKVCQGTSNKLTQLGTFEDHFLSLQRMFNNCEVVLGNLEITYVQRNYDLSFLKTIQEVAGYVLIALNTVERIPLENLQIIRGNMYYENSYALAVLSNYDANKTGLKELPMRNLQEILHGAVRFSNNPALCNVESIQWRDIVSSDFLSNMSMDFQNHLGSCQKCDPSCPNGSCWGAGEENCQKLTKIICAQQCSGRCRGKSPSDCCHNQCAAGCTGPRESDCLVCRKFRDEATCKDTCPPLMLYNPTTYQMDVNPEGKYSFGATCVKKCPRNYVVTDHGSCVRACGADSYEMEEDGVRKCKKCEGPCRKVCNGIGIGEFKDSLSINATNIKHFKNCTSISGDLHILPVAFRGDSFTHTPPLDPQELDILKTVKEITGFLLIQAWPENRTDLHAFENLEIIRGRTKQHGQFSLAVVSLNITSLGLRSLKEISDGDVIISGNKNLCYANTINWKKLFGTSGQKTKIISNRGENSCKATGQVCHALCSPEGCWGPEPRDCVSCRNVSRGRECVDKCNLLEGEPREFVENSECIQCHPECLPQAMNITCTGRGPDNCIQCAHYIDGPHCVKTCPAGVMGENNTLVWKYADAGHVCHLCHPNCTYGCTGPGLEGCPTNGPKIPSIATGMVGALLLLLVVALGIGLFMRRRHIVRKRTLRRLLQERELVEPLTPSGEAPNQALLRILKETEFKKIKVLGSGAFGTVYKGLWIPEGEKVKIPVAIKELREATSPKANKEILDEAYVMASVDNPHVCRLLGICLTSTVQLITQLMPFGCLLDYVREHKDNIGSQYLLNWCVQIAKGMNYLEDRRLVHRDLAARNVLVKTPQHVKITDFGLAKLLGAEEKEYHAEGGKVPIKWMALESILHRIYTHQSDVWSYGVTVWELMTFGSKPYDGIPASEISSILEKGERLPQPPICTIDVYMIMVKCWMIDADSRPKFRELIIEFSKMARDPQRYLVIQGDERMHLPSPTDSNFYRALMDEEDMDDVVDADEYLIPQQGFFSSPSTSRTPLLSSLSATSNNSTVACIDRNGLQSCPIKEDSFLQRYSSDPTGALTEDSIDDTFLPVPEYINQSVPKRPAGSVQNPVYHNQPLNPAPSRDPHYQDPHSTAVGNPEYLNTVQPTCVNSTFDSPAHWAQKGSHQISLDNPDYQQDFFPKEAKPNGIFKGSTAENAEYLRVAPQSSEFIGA

A549 [7] = assay: Cell cycle arrest in human A549 cells assessed as accumulation at […] phase measured after 24 hrs (reference value: 42.28%); format: functional
A549 [8] = assay: Cell cycle arrest in human A549 cells assessed as accumulation at G2/M phase measured after 24 hrs (reference value: 28.28%); format: functional
A549 [9] = assay: Cell cycle arrest in human A549 cells assessed as accumulation at S phase measured after 24 hrs (reference value: 36.58%); format: functional
A549 [10] = assay: Induction of apoptosis in human A549 cells assessed as early apoptotic cells measured after 24 hrs by Annexin-V-FITC/propidium iodide staining based assay (reference value: 0.39%); format: functional
A549 [11] = assay: Induction of apoptosis in human A549 cells assessed as late apoptotic cells measured after 24 hrs by Annexin-V-FITC/propidium iodide staining based assay (reference value: 0.15%); format: functional
A549 [12] = assay: Induction of apoptosis in human A549 cells assessed as necrotic cells measured after 24 hrs by Annexin-V-FITC/propidium iodide staining based assay (reference value: 1.29%); format: functional

| SMILES | IC50 (A549 [1]) [µM] | other results |
| --- | --- | --- |
| COc1ccc(-c2cc(-c3c(O)c4ccccc4oc3=O)nc(N)c2C#N)cc1OC | 7.38 | – |
| N#Cc1c(-c2ccc(F)cc2)cc(-c2c(O)c3ccccc3oc2=O)nc1N | 22.3 | – |
| COc1cc(-c2cc(-c3c(O)c4ccccc4oc3=O)nc(S)n2)ccc1O | 36.1 | – |
| O=c1oc2ccccc2c(O)c1-c1cc(-c2ccc(F)cc2)nc(S)n1 | 21.1 | – |
| O=c1oc2ccccc2c(O)c1-c1cc(-c2c(F)cccc2Cl)nc(O)n1 | 5.1 | – |
| N#Cc1c(-c2c(F)cccc2Cl)cc(-c2c(O)c3ccccc3oc2=O)nc1N | 46.3 | – |
| O=c1oc2ccccc2c(O)c1C1=NNC(c2c(F)cccc2Cl)C1 (stereo not given) | 23.5 | – |
| O=c1oc2ccccc2c(O)c1-c1cc(-c2c(F)cccc2Cl)nc(S)n1 | 3.98 | IC50 (WI-38): 30.5 µM |
| O=c1oc2ccccc2c(O)c1-c1cc(-c2ccc(F)cc2)nc(O)n1 | 2.39 | IC50 (WI-38): 37.8 µM |
| O=c1oc2ccccc2c(O)c1C1=NNC(c2ccc(F)cc2)C1 (stereo not given) | 1.05 | IC50 (WI-38): 19.9 µM |
| COc1cccc(-c2cc(-c3c(O)c4ccccc4oc3=O)nc(O)n2)c1 | 5.55 | – |
| COc1cccc(-c2cc(-c3c(O)c4ccccc4oc3=O)nc(S)n2)c1 | 10.2 | – |
| COc1ccc(C2CC(c3c(O)c4ccccc4oc3=O)=NN2)cc1OC (stereo not given) | 7.58 | – |
| COc1ccc(-c2cc(-c3c(O)c4ccccc4oc3=O)nc(O)n2)cc1OC | 21.7 | – |
| COc1cc(-c2cc(-c3c(O)c4ccccc4oc3=O)nc(N)c2C#N)ccc1O | 38.5 | – |
| COc1cc(-c2cc(-c3c(O)c4ccccc4oc3=O)nc(O)n2)ccc1O | 138 | – |
| COc1cc(C2CC(c3c(O)c4ccccc4oc3=O)=NN2)ccc1O (stereo not given) | 8.4 | – |
| COc1cccc(-c2cc(-c3c(O)c4ccccc4oc3=O)nc(N)c2C#N)c1 | 2.38 | Activity (A549 [2]): 42.14%; IC50 (WI-38): 53.8 µM; IC50 [3]: 0.042 µM; IC50 [4]: 0.02 µM; IC50 [5]: 0.021 µM; IC50 [6]: 0.033 µM; Activity (A549 [7]): 38.55%; Activity (A549 [8]): 11.32%; Activity (A549 [9]): 58.89%; Activity (A549 [10]): 4.67%; Activity (A549 [11]): 22.37%; Activity (A549 [12]): 17.12% |
| COc1ccc(-c2cc(-c3c(O)c4ccccc4oc3=O)nc(S)n2)cc1OC | 62.6 | – |
| COc1cccc(C2CC(c3c(O)c4ccccc4oc3=O)=NN2)c1 (stereo not given) | 5.91 | – |
